In patent publication US20120177601A1, “TREATMENT OF HEPATITIS C VIRUS INFECTIONS” (THE USA AS REPRESENTED BY THE SECRETARY OF THE DEPARTMENT …, priority 2009, published 2012):
Counter-ions that a name gives are not always drawn.

How the values were obtained:
[1] = test system: J6/JFH infectious HCV in Huh7.5 cells; assay: J6/JFH HCV infection of Huh7.5 cells (immunostaining, HCV RNA); assay type: cell-based; conditions: BV 20-200 μM, 72 hr; HCV polyvalent sera immunoreactivity and HCV RNA
Excerpt: Cell lines and cell culture. The human hepatoma cell line (Huh5-15) with replicating sub-genomic HCV RNA (Lohmann et al., 1999) was a kind gift of Dr. Volker Lohmann (Institute for Virology, Johannes-Gutenberg University, Mainz, Germany), and cultivated as described (Zhu et al., 2008). Huh7.5 cells harboring full length (Huh7.5FL) Conl replicons (Blight et al., 2002) were a kind gift of Dr. Charles Rice (Rockefeller University, New York, N.Y.). These cells were passed as recommended by their laboratory of origin (Blight et al., 2002). An infectious clone of HCV, J6/JFH, was inoculated into Huh7.5 cells and the cultures passed as previously described (Lindenbach et al., 2005). […]
Quantitative Real-time RT-PCR. Total RNA was extracted from cells using Trizol reagent (Invitrogen, Carlsbad, Calif.), treated with Turbo RNase free DNase (Ambion, TX), and processed as described (Zhu et al., 2008). […] Quantitation was performed using the comparative cycle threshold (ΔCT) method as described previously (Abdalla et al., 2004).
Immunocytochemical staining. […] Antibody binding was evaluated following labeling with anti-human secondary antibody-alkaline phosphatase conjugate and results recorded by photomicroscopy.

[2] = test system: Huh7.5FL replicon (full length Con1); assay: HCV replication in full-length (FL) replicon cells, real-time RT-PCR (ΔCT); assay type: cell-based; conditions: FL replicon, 48 hr
Excerpt: (§1) Cell lines and cell culture. The human hepatoma cell line (Huh5-15) with replicating sub-genomic HCV RNA (Lohmann et al., 1999) was a kind gift of Dr. Volker Lohmann (Institute for Virology, Johannes-Gutenberg University, Mainz, Germany), and cultivated as described (Zhu et al., 2008). Huh7.5 cells harboring full length (Huh7.5FL) Conl replicons (Blight et al., 2002) were a kind gift of Dr. Charles Rice (Rockefeller University, New York, N.Y.). These cells were passed as recommended by their laboratory of origin (Blight et al., 2002). An infectious clone of HCV, J6/JFH, was inoculated into Huh7.5 cells and the cultures passed as previously described (Lindenbach et al., 2005). Cells were incubated with BV, BR, or FeCl2 for 24-48 h in DMEM containing 5% FBS.
(§2) Quantitative Real-time RT-PCR. Total RNA was extracted from cells using Trizol reagent (Invitrogen, Carlsbad, Calif.), treated with Turbo RNase free DNase (Ambion, TX), and processed as described (Zhu et al., 2008). To assess replication, the primers and probe designed by Takeuchi et al. (1999) targeting sequences located in 5′UTR (nt130-290) were employed as described for each replicon line (Blight et al., 2002; Lohmann et al., 2003). Real-time RT-PCR was performed using Taq DNA polymerase with the TaqMan Universal PCR Master Mix Protocol (Perkin Elmer Applied Biosystems, Foster City, Calif.). Quantitation was performed using the comparative cycle threshold (ΔCT) method as described previously (Abdalla et al., 2004).

[3] = test system: Huh5-15NS replicon (sub-genomic HCV RNA); assay: HCV replication in nonstructural (NS) replicon cells, real-time RT-PCR (ΔCT); assay type: cell-based; conditions: NS replicon, 48 hr
Excerpt: as §1, §2

[4] = test system: replicon or parental cell lines (Huh7.5); assay: Cytotoxicity, MTT assay; assay type: cell-based, human; conditions: 20-200 μM BV
Protocol: Cytotoxicity assay. Cytotoxicity was assessed using the MTT assay as detailed previously (Wen et al., 2008). Cells (1×10^4 per well) were seeded in 96-well culture plates and allowed to attach overnight. […]

LPS induced septic shock = conditions: rats, 35 mg/kg; cited from earlier work
HIV-1 protease = HIV-1 protease (Human immunodeficiency virus type 1 group M subtype B, UniProt P04585); conditions: McPhee et al. 1996; cited from earlier work
[5] = test system: NS5A and core protein in NS and FL replicons; assay: Western blot / immunoprecipitation of HCV proteins in replicons; assay type: cell-based
Protocol: Western blot analysis. Western blots (WB) were performed as previously described using enhanced chemiluminescence for signal detection (ECLTM, Amersham) (Abdalla et al., 2005). Signal intensities were quantified using Image J software (NIH).
Immunoprecipitation of NS5A. Log-phase replicons were treated with various concentrations of BV for 48 hr, washed, lysed in cell lysis buffer (Cell Signaling Technology, Beverly, Mass.) and clarified by cold centrifugation (14,000×g for 10 min). An aliquot of supernatant containing 100 μg protein was incubated with 1 μg of HCV NS5A monoclonal antibody (Meridian Life Science, Saco, Me.) and 20 μl of rProtein G Agarose (Invitrogen, CA) overnight at 4° C. The agarose was collected by 3000×g spin, washed three times with ice-cold PBS, then dissolved in 40 μL 2× Laemmli sample buffer (Bio-Rad, CA) and assayed by WB.

[6] = target: T1, endogenous NS3/4A protease from replicons (Hepatitis C virus genotype 1b, UniProt Q9WMX2); assay: Endogenous NS3/4A protease assay with replicon lysates (FRET); assay type: biochemical, HCV; conditions: protease freshly prepared from replicons
T1 construct: For assays employing endogenous NS3/4A protease; expressed in transfected cells; host or cells: HCV replicon cells (Huh5-15 sub-genomic or Huh7.5FL Con1), Triton X-100 lysate
T1 sequence (Q9WMX2 1658-1711): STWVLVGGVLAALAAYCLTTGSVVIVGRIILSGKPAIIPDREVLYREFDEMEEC
T1 sequence (Q9WMX2 1027-1657): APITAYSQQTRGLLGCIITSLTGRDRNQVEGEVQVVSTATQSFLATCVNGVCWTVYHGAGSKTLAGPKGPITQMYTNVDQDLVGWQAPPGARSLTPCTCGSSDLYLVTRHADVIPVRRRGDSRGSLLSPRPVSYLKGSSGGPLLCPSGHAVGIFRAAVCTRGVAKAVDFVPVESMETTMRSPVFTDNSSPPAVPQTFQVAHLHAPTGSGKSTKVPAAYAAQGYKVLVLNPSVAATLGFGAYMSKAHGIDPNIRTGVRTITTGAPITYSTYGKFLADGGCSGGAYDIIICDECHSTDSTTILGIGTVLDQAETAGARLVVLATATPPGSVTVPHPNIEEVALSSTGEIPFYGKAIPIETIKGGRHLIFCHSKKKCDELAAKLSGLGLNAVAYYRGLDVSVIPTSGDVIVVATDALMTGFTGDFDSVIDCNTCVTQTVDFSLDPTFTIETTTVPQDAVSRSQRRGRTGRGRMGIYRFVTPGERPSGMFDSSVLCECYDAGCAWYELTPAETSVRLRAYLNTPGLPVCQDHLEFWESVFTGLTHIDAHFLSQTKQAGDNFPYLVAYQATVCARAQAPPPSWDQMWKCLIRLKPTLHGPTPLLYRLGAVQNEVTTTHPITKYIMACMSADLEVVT
Protocol: For assays employing endogenous NS3/4A protease, the high-throughput FRET assay was used with modifications (Yu et al., 20009). Replicon cells at 90% confluence were lysed in ice-cold 1.25% Triton X-100 lysis buffer (Yu et al., 20009). Serial dilutions of lysates were added in triplicate to black 96-well plates, together with designated concentrations of tetrapyrrole. The HiLyte Flur™ TR/QXL™ 610 substrate solution (AnaSpec) was prepared according to the manufacturer's instructions. The plate and substrate were incubated at 37° C. for 15 min, and then 50 μl substrate solution was added to each well. The plates were incubated at room temperature for 30 min, avoiding direct light. The fluorescence intensity was then measured as above for recombinant enzyme assays using FLUOstar Optima (BMG Lab Tech, Cary, N.C.). To ensure specificity for the NS3/4A protease, lysates of parental Huh7 and Huh7.5 cells were run in every assay and the results subtracted as background fluorescence.

[7] = test system: HCV replication in FL and NS replicons; assay: BV with α-interferon, HCV replication in replicons; assay type: cell-based; conditions: 50 or 100 μM BV overnight with α-interferon
Protocol: FL (FIG. 7A) or NS (FIG. 7B) replicons were treated with indicated amounts of α-interferon alone or in the presence of 50 or 100 μM BV overnight. HCV replication was determined by real-time RT-PCR using the comparative cycle threshold (ΔCT) method. (*) p<0.01 vs. control; (#) p<0.005 vs. control.
as §2

With `C=CC1=C(C)/C(=C/C2=NC(=C\c3[nH]c(/C=C4\NC(=O)C(C)=C4C=C)c(C)c3CCC(=O)O)/C(CCC(=O)O)=C2C)NC1=O` [Biliverdin, biliverdin-IX-α hydrochloride] the “Huh7.5 cell infection with J6/JFH” value [1] was “markedly decreased”, the “concentration showing significant antiviral activity / required to suppress HCV replication” value [2] was 20 µM and the “concentration showing significant antiviral activity / required to suppress HCV replication” value [3] was 20 µM. The “toxicity (MTT) with FBS” value ([4]; inclusion of 3-5% FBS, data not shown) was “toxicity was eliminated”, the “toxicity (MTT)” value ([4]; serum-free culture medium, 24-48 hr) was 15% and the “LPS induced septic shock” value (LPS induced septic shock) was “protected rats against LPS induced septic shock”. The Ki (HIV-1 protease) was 1 µM, the “NS5A protein level (WB)” value ([5]; both replicon lines, 24 hr, BV 20 μM, BR 200 μM, FeCl2 100 mM as printed) was “decreased NS5A” and the “core protein level (WB)” value ([5]; full-length replicons, 24 hr, BV 20 μM, BR 200 μM, FeCl2 100 mM as printed) was “reduced”. For the same compound, the “NS5A by WB or immunoprecipitation, concentration series” value ([5]; full-length replicons, various concentrations of BV) was “dose-dependently decreased NS5A”, the “inhibition of endogenous protease compared with recombinant enzyme” value [6] was “slightly higher concentrations” and the “effect of BV on α-interferon antiviral activity” value [7] was “clear additive effect”.
